What was measured:
[1] = cited from earlier work
[2] = system: fatty acid elongation and desaturation (delta 5 desaturase, delta 6 desaturase, elongase); experiment: pathway analysis: lipid synthesis enzyme activities estimated from fatty acid ratios; format: in vivo, human
Description: Estimates of lipid synthesis enzyme activities were calculated using the precursor to product ratios for each enzyme. The following ratios were used: 18:3n6/18:2n6 for delta 6 desaturase; 20:3n6/18:3n6 for delta 6 elongase; 20:4n6/20:3n6 for delta 5 desaturase; 22:4n6/20:4n6 for elongase; 24:4n6/22:4n6 for elongase; 24:5n6/24:4n6 for delta 6 desaturase. The absolute numbers for each fatty acid metabolite were used for calculating metabolite changes.
To characterize fatty acid elongation and desaturation processes that might be modified in schizophrenia, various ratios of products to substrates in different fatty acid pathways were determined and are summarized in Table VIII.

[3] = system: patients with schizophrenia; experiment: Clinical Global Impressions (CGI) Scale psychopathology assessment; format: in vivo, human; details: means and standard error; for CGI Affective, Post / CGI Negative, Post / CGI Positive, Post: CGI Scale 1 to 7, higher scores greater severity; for CGI Change, Post: overall global change rating at follow-up (1-2 responders, 3-6 non-responders)
Description: (§1) Fifty male and female patients were recruited in two studies for metabolic profiling (Table VI and Table VII for demographics). Subjects ranged in age from 18 to 60 years and met the following inclusion criteria: a) DSM-IV criteria for schizophrenia, schizophreniform disorder, or schizoaffective disorder; b) newly hospitalized for a psychotic exacerbation in the setting of no antipsychotic treatment for at least 3 weeks prior to admission; and c) provided signed informed consent. Patients with psychoses due to psychoactive substance abuse or an underlying medical condition were excluded. Patients who were receiving treatment for diabetes mellitus or hyperlipidemia were also excluded.
The choice and dose of antipsychotic medication was based on the doctor's judgment. […] The treatment duration was 2-3 weeks. […] The 2-3 week duration permits the study of acute early effects.
Psychopathology was assessed on the Clinical Global Impressions (CGI) Scale at baseline and at the time of follow-up blood draws. Scores for the CGI Scale can range from 1 to 7, with higher scores indicating greater severity of illness (Guy (1975) ECDEU Assessment Manual for Psychopharmacology: Publication ADM 76-338. Washington, D.C.: US Department of Health, Education, and Welfare). An overall global change rating was also made at the time of the follow-up blood draw.

[4] = system: patients with schizophrenia; experiment: plasma lipid profiling pre- and post-treatment with antipsychotics; format: in vivo, human; as to CE18:3n3 I/D: key: I: increase; D: decrease; as to DG18:3n6 I/D: key: I: increase; D: decrease; as to FA.SFA I/D: key: I: increase; D: decrease; as to FA16:0 I/D: key: I: increase; D: decrease; as to FA18:0 I/D: key: I: increase; D: decrease; as to FA20:4n6 I/D: key: I: increase; D: decrease; as to FA20:5n3 I/D: key: I: increase; D: decrease; as to FA24:0 I/D: key: I: increase; D: decrease; as to LY.n9 I/D: key: I: increase; D: decrease; as to LY18:0 I/D: key: I: increase; D: decrease; as to LY18:1n9 I/D: key: I: increase; D: decrease; as to LY18:3n6 I/D: key: I: increase; D: decrease; as to LY20:1n9 I/D: key: I: increase; D: decrease; as to LY20:2n6 I/D: key: I: increase; D: decrease; as to LY20:3n9 I/D: key: I: increase; D: decrease; as to LY20:4n3 I/D: key: I: increase; D: decrease; as to LYLC I/D: key: I: increase; D: decrease; as to PC.n9 I/D: key: I: increase; D: decrease; as to PC14:0 I/D: key: I: increase; D: decrease; as to PC16:1n7 I/D: key: I: increase; D: decrease; as to PC18:0 I/D: key: I: increase; D: decrease; as to PC18:1n9 I/D: key: I: increase; D: decrease; as to PC18:3n3 I/D: key: I: increase; D: decrease; as to PC18:3n6 I/D: key: I: increase; D: decrease; as to PC20:2n6 I/D: key: I: increase; D: decrease; as to PC20:3n9 I/D: key: I: increase; D: decrease; as to PC20:4n3 I/D: key: I: increase; D: decrease; as to PC20:5n3 I/D: key: I: increase; D: decrease; as to PCLC I/D: key: I: increase; D: decrease; as to PE.n9 I/D: key: I: increase; D: decrease; as to PE18:1n9 I/D: key: I: increase; D: decrease; as to PELC I/D: key: I: increase; D: decrease; as to TG14:0 I/D: key: I: increase; D: decrease; as to TG14:1n5 I/D: key: I: increase; D: decrease; as to TG18:0 I/D: key: I: increase; D: decrease; as to TG18:3n6 I/D: key: I: increase; D: decrease; as to TG20:0 I/D: key: I: increase; D: decrease; as to TG20:3n6 I/D: key: I: increase; D: decrease; as to TG20:4n3 I/D: key: I: increase; D: decrease; as to TG20:5n3 I/D: key: I: increase; D: decrease
Description: as §1
The choice and dose of antipsychotic medication was based on the doctor's judgment. […] The treatment duration was 2-3 weeks. […] The mean duration of therapy was about 2 weeks for all 3 drugs in Study II. The drug groups were otherwise generally similar in severity of disease and physical characteristics (Table VI and Table VII). The 2-3 week duration permits the study of acute early effects.
All blood samples were drawn from subjects in the early morning after overnight fasting. Blood was drawn into vacutainer tubes containing sodium heparin, immediately placed on ice, and within 10 minutes, the blood was centrifuged and the plasma was transferred into polypropylene tubes and stored in a −30° C. freezer. All baseline samples were drawn prior to starting antipsychotic treatment in the study. If a patient had received a dose of an antipsychotic during the referral process (e.g., because of agitation when initially seen in a local emergency department), drawing of baseline plasma samples was delayed for 2-3 days. Follow-up samples were drawn after patients had received an average of 2-3 weeks of acute antipsychotic treatment.
A comprehensive assessment of plasma lipid profiles was performed (Lipomics Technologies, West Sacramento, Calif.) according to established methods (Watkins, et al. (2002) J. Lipid Res. 43(11):1809-17). Quantitative measurements of fatty acids in various lipid classes were determined as nmol fatty acid/gram of plasma. Lipid classes included cholesterol esters (CE), free cholesterol (FC), triacylglycerols (TG), diacylglycerols (DG), free fatty acids (FA), lysophosphatidylcholine (LY), phosphatidylcholine (PC), and phosphatidylethanolamine (PE). Lipid metabolites are identified by the lipid class and the fatty acid moiety. In the context of this invention, fatty acids are identified first by the number of carbons in the molecule (e.g., 20), the number of double bonds in the molecule (e.g., 4), and lastly the position of the double bonds (e.g., n6). To illustrate, PC20:4n6 denotes a phosphatidylcholine molecule containing a 20 carbon fatty acid with 4 double bonds at the n6 position.
Significant differences between pre- and post-drug treatment were assessed by paired t-tests. Evaluation of response to drug was assessed by two-way ANOVA. All statistics were done using R with the following functions: t.test, anova, prcomp, and g/m (Team RDC (2005) R: A language and environment for statistical computing. R Foundation for Statistical Computing). Before beginning statistical analyses, change detection was used to determine if observed signals were greater than that which could be expected by chance (noise). The chance distribution of p-values was determined by permuting the outcome groupings (Golub, et al. (1999) Science 286(5439):531-7). Briefly, P values for the appropriate comparison were calculated for each metabolite using a Student's t-test. The metabolites were ranked by p value from smallest to largest. The log of the rank versus the log of the p value for each comparison of interest was plotted and is represented by a colored line. The distribution of p values expected by chance at each rank is indicated by the shaded area. […]

[5] = Study I, after 2-3 weeks treatment
[6] = Study II, about 2 weeks treatment
[7] = Study I, plasma, post-treatment vs pre-treatment
[8] = Study II, plasma, post-treatment vs pre-treatment
[9] = plasma, mole percentage data, post treatment compared with pretreatment
[10] = plasma, total lipid class data (nmol/g sample), post treatment compared with pretreatment

Question: For `Cc1nc2n(c(=O)c1CCN1CCC(c3noc4cc(F)ccc34)CC1)CCCC2` [Risperidone, risperidone], which “effect on serum lipids” value ([1]; in vivo) is on record?
Answer: discrepant data

Question: What about the “weight gain, mean increases during the first year of therapy” value ([1]; prospective data) of the same compound?
Answer: 4.4-5.1 lbs

Question: What about the “apparent delta 5 desaturase activity” value ([2]; estimated from 20:4n6/20:3n6 in phosphatidylcholine, FIGS. 5A and 5B) of the same compound?
Answer: decreased

Question: What about the “alterations of fatty acid ratios in patients with schizophrenia” value ([2]; following treatment) of the same compound?
Answer: essentially reversed toward normal ranges

Question: And the “CGI Affective, Post” value [3, 5]?
Answer: 1.7 ± 0.3

Question: What about the “CGI Negative, Post” value [3, 5] of the same compound?
Answer: 2 ± 0.4

Question: And the “CGI Positive, Post” value [3, 5]?
Answer: 2.6 ± 0.2

Question: What about the “CGI Change, Post” value ([3]; Study I) of the same compound?
Answer: 2.9 ± 0.3

Question: What about the “CGI Affective, Post” value [3, 6] of the same compound?
Answer: 1.2 ± 0.2

Question: And the “CGI Negative, Post” value [3, 6]?
Answer: 1.4 ± 0.2

Question: And the “CGI Positive, Post” value [3, 6]?
Answer: 3 ± 0.3

Question: What about the “CGI Change, Post” value ([3]; Study II) of the same compound?
Answer: 3 ± 0.3

Question: And the “concentration of arachidonic acid, AA (20:4n6)” value ([4]; Study I, plasma lipid classes, post-treatment vs pre-treatment)?
Answer: not significantly altered

Question: And the CE concentration [4, 7]?
Answer: trend toward an increase

Question: And the DG concentration [4, 7]?
Answer: trend toward an increase

Question: And the “FA (free fatty acid) class concentration” value [4, 7]?
Answer: decrease

Question: What about the LY class concentration [4, 7] of the same compound?
Answer: increase

Question: What about the PC class concentration [4, 7] of the same compound?
Answer: increased

Question: And the PE class concentration [4, 7]?
Answer: increased

Question: And the TG concentration [4, 7]?
Answer: trend toward an increase

Question: What about the “concentration of linoleic acid (18:2n6) and its immediate metabolic products 18:3n6 and 20:3n6” value [4, 7] of the same compound?
Answer: increased

Question: What about the “concentration of saturated fatty acids in PE, PC and LY” value [4, 7] of the same compound?
Answer: increased

Question: And the “concentration of total n6 and n3 fatty acids in PE, PC and LY” value [4, 7]?
Answer: increased

Question: What about the “n7 and n9 free fatty acids” value [4, 7] of the same compound?
Answer: decreases

Question: And the DG concentration [4, 8]?
Answer: significantly increased

Question: And the “PC18:3n6 concentration” value [4, 8]?
Answer: increased

Question: What about the “PC20:2n6 concentration” value [4, 8] of the same compound?
Answer: increased

Question: What about the “PC20:3n6 concentration” value [4, 8] of the same compound?
Answer: increased

Question: What about the PC concentration [4, 8] of the same compound?
Answer: increased

Question: What about the PE concentration [4, 8] of the same compound?
Answer: increased

Question: What about the TG concentration [4, 8] of the same compound?
Answer: significantly increased

Question: And the “concentration of PC20:4n6 (arachidonic acid)” value [4, 8]?
Answer: did not change

Question: What about the “reduction in 18:0 in patients with schizophrenia” value ([4]; after treatment, FIG. 1) of the same compound?
Answer: essentially reversed

Question: What about the “triacylglycerol and phospholipid content of the plasma” value ([4]; following treatment) of the same compound?
Answer: increased

Question: And the fatty acid synthesis ([4]; inferred from 16:1n7, 18:1n7 and 18:1n9 concentrations)?
Answer: less evident

Question: What about the “CE18:3n3 I/D” value [4, 9] of the same compound?
Answer: I

Question: What about the “DG18:3n6 I/D” value [4, 9] of the same compound?
Answer: I

Question: And the “FA16:0 I/D” value [4, 9]?
Answer: I

Question: What about the “FA18:0 I/D” value [4, 9] of the same compound?
Answer: I

Question: What about the “FA20:4n6 I/D” value [4, 9] of the same compound?
Answer: I

Question: And the “FA20:5n3 I/D” value [4, 9]?
Answer: I

Question: And the “FA24:0 I/D” value [4, 9]?
Answer: I

Question: What about the “FA.SFA I/D” value [4, 9] of the same compound?
Answer: I

Question: What about the “LY18:0 I/D” value [4, 9] of the same compound?
Answer: I

Question: And the “LY18:1n9 I/D” value [4, 9]?
Answer: I

Question: What about the “LY18:3n6 I/D” value [4, 9] of the same compound?
Answer: I

Question: And the “LY20:1n9 I/D” value [4, 9]?
Answer: I

Question: And the “LY20:2n6 I/D” value [4, 9]?
Answer: I

Question: What about the “LY20:3n9 I/D” value [4, 9] of the same compound?
Answer: I

Question: What about the “LY20:4n3 I/D” value [4, 9] of the same compound?
Answer: I

Question: And the “LY.n9 I/D” value [4, 9]?
Answer: I

Question: And the “PC14:0 I/D” value [4, 9]?
Answer: I

Question: What about the “PC16:1n7 I/D” value [4, 9] of the same compound?
Answer: I

Question: What about the “PC18:0 I/D” value [4, 9] of the same compound?
Answer: I

Question: What about the “PC18:1n9 I/D” value [4, 9] of the same compound?
Answer: I

Question: And the “PC18:3n3 I/D” value [4, 9]?
Answer: I

Question: And the “PC18:3n6 I/D” value [4, 9]?
Answer: I

Question: What about the “PC20:2n6 I/D” value [4, 9] of the same compound?
Answer: I

Question: And the “PC20:3n9 I/D” value [4, 9]?
Answer: I

Question: What about the “PC20:4n3 I/D” value [4, 9] of the same compound?
Answer: I

Question: What about the “PC20:5n3 I/D” value [4, 9] of the same compound?
Answer: I

Question: And the “PC.n9 I/D” value [4, 9]?
Answer: I

Question: And the “PE18:1n9 I/D” value [4, 9]?
Answer: I

Question: And the “PE.n9 I/D” value [4, 9]?
Answer: I

Question: And the “TG14:0 I/D” value [4, 9]?
Answer: I

Question: And the “TG14:1n5 I/D” value [4, 9]?
Answer: I

Question: And the “TG18:0 I/D” value [4, 9]?
Answer: I

Question: And the “TG18:3n6 I/D” value [4, 9]?
Answer: I

Question: And the “TG20:0 I/D” value [4, 9]?
Answer: I

Question: What about the “TG20:3n6 I/D” value [4, 9] of the same compound?
Answer: I

Question: What about the “TG20:4n3 I/D” value [4, 9] of the same compound?
Answer: I

Question: What about the “TG20:5n3 I/D” value [4, 9] of the same compound?
Answer: I

Question: And the “LYLC I/D” value [4, 10]?
Answer: I

Question: What about the “PCLC I/D” value [4, 10] of the same compound?
Answer: I

Question: And the “PELC I/D” value [4, 10]?
Answer: I

Question: And the “levels of arachidonic and docosahexaenoic acids (20:4n6 and 22:6n3)” value ([4]; present studies, after treatment)?
Answer: remained essentially the same

Source: US8637321B2, “Lipidomics approaches for central nervous system disorders” (priority 2005, dated 2014)
